Experimental data taken from article PMC7465469, “Inhibition of the Lysophosphatidylinositol Transporter ABCC1 Reduces Prostate Cancer Cell Growth and Sensitizes to Chemotherapy” (Cancers, 2020).

Biological target: T1, ABCC1 (Homo sapiens, UniProt P33527)
T1 construct: wild-type ABCC1 (pcDNA3-ABCC1) transiently expressed in HEK293T cells
Assay: Calcein-AM efflux, two-colour flow cytometry in ABCC1-transfected HEK293T cells
Assay type: cell-based

T1 sequence (P33527 whole entry): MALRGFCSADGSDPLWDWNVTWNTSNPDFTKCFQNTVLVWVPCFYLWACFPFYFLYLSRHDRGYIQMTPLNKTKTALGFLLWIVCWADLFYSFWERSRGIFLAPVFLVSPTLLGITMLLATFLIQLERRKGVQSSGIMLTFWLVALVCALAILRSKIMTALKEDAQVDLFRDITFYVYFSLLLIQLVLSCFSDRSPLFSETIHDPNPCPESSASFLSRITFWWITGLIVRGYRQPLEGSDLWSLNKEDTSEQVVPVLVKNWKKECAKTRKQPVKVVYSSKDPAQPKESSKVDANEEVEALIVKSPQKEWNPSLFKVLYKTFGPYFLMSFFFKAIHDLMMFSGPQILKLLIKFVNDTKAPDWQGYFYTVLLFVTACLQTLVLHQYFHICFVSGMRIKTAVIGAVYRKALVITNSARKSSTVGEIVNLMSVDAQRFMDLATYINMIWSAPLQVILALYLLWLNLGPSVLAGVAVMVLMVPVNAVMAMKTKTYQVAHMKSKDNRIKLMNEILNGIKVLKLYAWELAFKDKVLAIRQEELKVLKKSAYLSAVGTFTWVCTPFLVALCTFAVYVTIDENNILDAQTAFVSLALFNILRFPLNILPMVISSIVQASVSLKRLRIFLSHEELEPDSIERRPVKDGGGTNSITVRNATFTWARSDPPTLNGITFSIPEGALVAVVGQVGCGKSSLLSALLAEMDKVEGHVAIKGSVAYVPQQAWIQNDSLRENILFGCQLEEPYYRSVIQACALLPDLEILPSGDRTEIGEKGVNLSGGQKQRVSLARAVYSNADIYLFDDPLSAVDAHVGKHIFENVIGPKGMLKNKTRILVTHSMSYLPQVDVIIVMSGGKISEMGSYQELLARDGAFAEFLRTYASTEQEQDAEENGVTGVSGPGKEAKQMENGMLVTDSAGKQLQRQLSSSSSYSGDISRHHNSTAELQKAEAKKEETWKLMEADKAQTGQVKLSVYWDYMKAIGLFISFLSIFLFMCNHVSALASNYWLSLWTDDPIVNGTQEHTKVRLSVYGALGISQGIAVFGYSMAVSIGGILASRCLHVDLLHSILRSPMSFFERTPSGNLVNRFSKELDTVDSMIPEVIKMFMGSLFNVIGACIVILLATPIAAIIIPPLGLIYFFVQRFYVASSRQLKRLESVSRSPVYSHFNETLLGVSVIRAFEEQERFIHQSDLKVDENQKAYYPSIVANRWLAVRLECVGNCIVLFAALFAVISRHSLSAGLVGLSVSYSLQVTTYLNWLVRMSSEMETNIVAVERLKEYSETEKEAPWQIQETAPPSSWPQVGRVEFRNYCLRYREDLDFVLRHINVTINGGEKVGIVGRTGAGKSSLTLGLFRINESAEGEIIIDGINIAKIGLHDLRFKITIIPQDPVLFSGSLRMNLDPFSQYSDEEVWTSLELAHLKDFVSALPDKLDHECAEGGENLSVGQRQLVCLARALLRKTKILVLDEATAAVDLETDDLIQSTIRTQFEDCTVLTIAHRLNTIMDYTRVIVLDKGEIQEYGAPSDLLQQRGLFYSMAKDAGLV

**Q.** For `CC1=C(CC(=O)O)c2cc(F)ccc2/C1=C\c1ccc([S+](C)[O-])cc1` (stereo not shown) [Sulindac], which IC50 is on record?
**A.** 106 µM
